≈ marks a conversion by molar mass, not a printed value. Like-named read-outs stand apart in the source and are kept apart here. Where a SMILES comes first, the peptide text is derived from it. [ ]: non-standard residue; d: D form.

In one data set the test system is Gram-positive bacteria. As for the experimental part: (§1) The minimum inhibitory concentration (MIC) was measured using a broth microdilution method to determine the in vitro antimicrobial activity of the peptides. Bacteria were inoculated into MHB and incubated overnight at 37 °C until the bacteria were in log phase growth. Next, we corrected the bacterial concentration to approximately 1 × 10^5 CFU/mL using MHB. The peptides were added to 96-well plates containing 0.01% acetic acid and 0.2% bovine serum albumin at final concentrations ranging from 0.25 to 128 μM. After incubation at 37 °C for 24 h, the absorbance was measured at 492 nm using a microplate reader (Tecan GENios F129004, Tecan, Austria). Broth containing microbes and […] were used as positive and negative controls, respectively. The lowest peptide concentration with no increase in absorbance compared to that of the negative control was defined as the MIC. The experiments were independently performed three times.

The subject of data set [1] is Gram-positive and Gram-negative bacteria. As for the experimental part: as §1
Another data set concerns S. aureus ATCC29213. As to the kind of experiment: microbe, parasite or virus in culture. The following applies: ATCC29213, 24 h. Here is the method:
as §1

The next data set concerns E. coli UB1005. As to the kind of experiment: microbe, parasite or virus in culture. The note with it: UB1005, 24 h. As for the experimental part: as §1
In another data set the test system is E. coli K99. Nature of the data set: microbe, parasite or virus in culture. Here is the method:
as §1

The next data set relates to P. aeruginosa ATCC27853. Nature of the data set: microbe, parasite or virus in culture. The note with it: ATCC27853, 24 h. Here is the method:
as §1

For the next data set, the system named is S. pullorum C7913. As to the kind of experiment: microbe, parasite or virus in culture. Here is the method:
as §1

A further data set relates to S. epidermidis ATCC12228. As to the kind of experiment: microbe, parasite or virus in culture. The note with it: ATCC12228, 24 h. As for the experimental part: as §1
A further data set concerns E. coli K88. Nature of the data set: microbe, parasite or virus in culture. Here is the method: as §1
The test system of data set [2] is methicillin-resistant S. aureus ATCC43300. Nature of the data set: microbe, parasite or virus in culture. The note with it: ATCC43300, 24 h. Here is the method: as §1
Another data set has as its system E. coli ATCC25922. Nature of the data set: microbe, parasite or virus in culture. The note with it: ATCC25922, 24 h. Here is the method:
as §1

A short description of data set [3]: RP-HPLC retention time as measure of hydrophobicity. In kind it is physicochemical. The following applies: analytical Kromasil C18 column 4.6 mm × 250 mm, 5.0 μm, acetonitrile, flow 1.0 mL/min, used as measure of hydrophobicity. As for the experimental part:
The hydrophobicities of the peptides in solution were reliably mirrored by their high-performance liquid chromatography (HPLC)retention times. The retention times for peptide HI2, HW2, HV2, HF2, and PG-1 were 11.13, 10.55, 12.20, 18.06 and 12.56 min, respectively, indicating the following hydrophobic order: HF2 > PG-1 > HV2 > HI2 > HW2(Table 1).
The designed peptides were synthesized and purified by GL Biochem (Shanghai, China). Acetonitrile was used on an analytical Kromasil C18 column (4.6 mm × 250 mm, 5.0 μm, LC 3000, Beijing, China), and the purity of the peptides was determined to be greater than 95% via reversed-phase high-performance liquid chromatography (RP-HPLC) with a flow rate of 1.0 mL/min. The experimental molecular weights of the peptides were evaluated via ESI-MS analysis, and these values were very close to the calculated masses. Next, the peptides were dissolved in deionized water at a concentration of 2.56 mM, and the peptide solutions were stored at −20 °C.

Data set [4] deals with human red blood cells (hRBCs). As to the kind of experiment: Hemolytic activity. The following applies: 1 h, OD 570 nm; for hemolysis rate: at the highest concentration (128 μM), 1% hRBC in PBS, 37 °C, 0.1% Triton X-100 positive control; for MHC, minimum hemolytic concentration: concentration causing 5% hemolysis of hRBC, 1% hRBC in PBS pH 7.4, 37 °C, repeated three times.
Procedure: Briefly, collected human red blood cells (hRBCs) were washed three times with PBS (pH 7.4) and diluted to 1% in PBS. Next, equal volumes of blood cells were mixed with different peptide concentrations in 96-well plates followed by incubated at 37 °C for 1 h. The mixtures were centrifuged (1000 g, 5 min), and the supernatants were transferred to 96-well plates to measure the optical density (OD) at 570 nm. Untreated blood cells were used as negative controls, and 0.1% Triton X-100-treated blood cells were used as positive controls. The minimum peptide concentration corresponding to 5% hemolytic activity was defined as the minimal hemolytic concentration (MHC). These assays were independently repeated three times.
Data set [5] can be described thus: LPS binding assay (BODIPY-TR-cadaverine displacement). Further details: species or system E. coli. The note with it: peptide concentration higher than 4 μM; 50 μg/mL LPS, 5 μg/mL BODIPY-TR cadaverine, Tris 50 mM pH 7.4; 100% = 10 μg/mL polymyxin B. As for the experimental part: The abilities of the antimicrobial peptides to bind LPS were determined using the fluorescent dye BODIPY-TR-cadaverine (BC) substitution method. LPS (50 μg/mL) from E. coli O111:B4 was incubated with BC (5 μg/mL) in Tris buffer (50 mm, pH 7.4) for 4 h. Next, 50 μL of various concentrations of peptides (final concentration of 1–64 μM) and 50 μL of LPS-BC mixture were added to 96-well plates, and the fluorescence was measured using a fluorescence spectrophotometer (Infinite 200 pro, Tecan, China) at an excitation wavelength of 580 nm and an emission wavelength of 620 nm. Each test was performed three times. The values were converted to %∆F (AU) using the following equation:%ΔF (AU) = [(Fobs − F0)/(F100 − F0)] × 100 where Fobs is the fluorescence value measured in the presence of the peptide, F0 is the initial fluorescence of LPS with BC without the addition of peptides, F100 is the fluorescence value produced by adding 10 μg/mL polymyxin B.

The next data set has as its system Gram-negative bacteria. As to the kind of experiment: MICs against Gram-negative strains (geometric mean, range). It counts as cell-based. The note with it: for MBC (GM), geometric mean of MICs, Gram (−): Gram-negative strains, 256 μM used where no activity at 128 μM. Here is the method:
as §1

The mark [6] stands for this setting: E. coli K99, MHB, about 1 × 10^5 CFU/mL, 37 °C, 24 h, three independent experiments.
The mark [7] stands for this setting: E. coli K88, MHB, about 1 × 10^5 CFU/mL, 37 °C, 24 h, three independent experiments.

Take `N=C(N)NCCC[C@H](NC(=O)[C@H](CCCNC(=N)N)NC(=O)[C@H](Cc1ccccc1)NC(=O)[C@H](Cc1c[nH]cn1)NC(=O)[C@H](Cc1ccccc1)NC(=O)[C@H](Cc1c[nH]cn1)NC(=O)[C@H](Cc1ccccc1)NC(=O)CNC(=O)[C@H]1CCCN1C(=O)[C@H](Cc1ccccc1)NC(=O)[C@H](Cc1c[nH]cn1)NC(=O)[C@H](Cc1ccccc1)NC(=O)[C@H](Cc1c[nH]cn1)NC(=O)[C@H](Cc1ccccc1)NC(=O)[C@H](CCCNC(=N)N)NC(=O)[C@@H](N)CCCNC(=N)N)C(N)=O` [HF2] (H-RRFHFHF[dP]GFHFHFRR-NH2; N-terminus assumed): in the data set on Gram-positive bacteria (24 h), the “MBC (GM), geometric mean of MICs, Gram (+)” value was determined as 10.08 µM. In [1] (24 h), the “MBC (GM), geometric mean of MICs, Gram (+,−)” value was determined as 8.64 µM. The MIC against S. aureus ATCC29213 is 64 µM (≈ 143 µg/mL); in the data set with E. coli UB1005 it was 8 µM (≈ 17.8 µg/mL); against E. coli K99 (setting [6]) it was 4 µM (≈ 8.91 µg/mL); in the data set on P. aeruginosa ATCC27853, above 128 µM; in the data set with S. pullorum C7913 (C7913, 24 h), 4 µM (≈ 8.91 µg/mL); with S. epidermidis ATCC12228, 4 µM (≈ 8.91 µg/mL). For the same molecule, the MIC is 2 µM (≈ 4.46 µg/mL) with E. coli K88 (setting [7]), 4 µM (≈ 8.91 µg/mL) in data set [2] and 4 µM (≈ 8.91 µg/mL) against E. coli ATCC25922. The “Retention Time” value in data set [3] stood at 18.06 min. In [4], this molecule yielded a hemolysis rate of 30.46%. Further, in data set [4], the “MHC, minimum hemolytic concentration” value amounted to 16 µM. Besides, the “LPS binding ability relative to binding activity of polymyxin B” value in data set [5] was “higher than 60%”. For the same molecule, the “MBC (GM), geometric mean of MICs, Gram (−)” value in the data set on Gram-negative bacteria was found to be 8.00 µM.
For `N=C(N)NCCC[C@H](NC(=O)[C@H](CCCNC(=N)N)NC(=O)[C@H](Cc1c[nH]c2ccccc12)NC(=O)[C@H](Cc1c[nH]cn1)NC(=O)[C@H](Cc1c[nH]c2ccccc12)NC(=O)[C@H](Cc1c[nH]cn1)NC(=O)[C@H](Cc1c[nH]c2ccccc12)NC(=O)CNC(=O)[C@H]1CCCN1C(=O)[C@H](Cc1c[nH]c2ccccc12)NC(=O)[C@H](Cc1c[nH]cn1)NC(=O)[C@H](Cc1c[nH]c2ccccc12)NC(=O)[C@H](Cc1c[nH]cn1)NC(=O)[C@H](Cc1c[nH]c2ccccc12)NC(=O)[C@H](CCCNC(=N)N)NC(=O)[C@@H](N)CCCNC(=N)N)C(N)=O` [HW2] (H-RRWHWHW[dP]GWHWHWRR-NH2; N-terminus assumed), the “MBC (GM), geometric mean of MICs, Gram (+)” value in the data set on Gram-positive bacteria (Gram-positive strains, 256 μM used where no activity at 128 μM) is 2.52 µM. The “MBC (GM), geometric mean of MICs, Gram (+,−)” value in data set [1] (all strains, 256 μM used where no activity at 128 μM) was determined as 3.17 µM. The MIC turned out to be 4 µM (≈ 9.85 µg/mL) against S. aureus ATCC29213; 2 µM (≈ 4.92 µg/mL) against E. coli UB1005; 4 µM (≈ 9.85 µg/mL) with E. coli K99 (setting [6]); 8 µM (≈ 19.7 µg/mL) in the data set with P. aeruginosa ATCC27853; 2 µM (≈ 4.92 µg/mL) in the data set with S. pullorum C7913 (C7913, 24 h); 2 µM (≈ 4.92 µg/mL) against S. epidermidis ATCC12228. Also, the MIC against E. coli K88 (setting [7]) was 4 µM (≈ 9.85 µg/mL); in [2], 2 µM (≈ 4.92 µg/mL); with E. coli ATCC25922, 4 µM (≈ 9.85 µg/mL). Moreover, the “Retention Time” value in [3] is 10.55 min. In [4], this molecule registered a hemolysis rate of 15.58%. Moreover, the “MHC, minimum hemolytic concentration” value in data set [4] turned out to be 8 µM. In data set [5], the “LPS binding ability relative to binding activity of polymyxin B” value is on record as “higher than 60%”. Further, the “MBC (GM), geometric mean of MICs, Gram (−)” value against Gram-negative bacteria came to 3.56 µM.
For the molecule `CC(C)(O/N=C(\C(=O)N[C@@H]1C(=O)N2C(C(=O)[O-])=C(C[n+]3ccccc3)CS[C@H]12)c1csc(N)n1)C(=O)O` [Ceftazidime], the MIC was determined as 16 µM (≈ 8.75 µg/mL) against S. aureus ATCC29213 (Staphylococcus aureus); 1 µM (≈ 0.547 µg/mL) in the data set on E. coli UB1005 (Escherichia coli); 0.5 µM (≈ 0.273 µg/mL) in the data set on E. coli K99 (Escherichia coli, K99, 24 h); 2 µM (≈ 1.09 µg/mL) with P. aeruginosa ATCC27853 (Pseudomonas aeruginosa); 1 µM (≈ 0.547 µg/mL) in the data set on S. pullorum C7913 (Salmonella enterica, PULLORUM, 24 h); 16 µM (≈ 8.75 µg/mL) in the data set with S. epidermidis ATCC12228 (Staphylococcus epidermidis). In addition, the MIC was 1 µM (≈ 0.547 µg/mL) against E. coli K88 (Escherichia coli, K88, 24 h); 16 µM (≈ 8.75 µg/mL) in data set [2] (Staphylococcus aureus); 2 µM (≈ 1.09 µg/mL) with E. coli ATCC25922 (Escherichia coli). For the same molecule, the geometric mean MIC in the data set with Gram-negative bacteria (read-out: MBC (GM), geometric mean of MICs, Gram (−)) worked out at 1.12 µM.
